{"source": "patent US20240409934A1", "about": "“FOXO1-TARGETED THERAPY FOR THE TREATMENT OF CANCER” (BOARD OF REGENTS, THE UNIVERSITY OF TEXAS SYSTEM, priority 2021, published 2024)", "type_in_all_cases": "cell-based", "key": {"BT549 cells": {"test_system": "BT549 cells", "assay": "Propidium iodide / FITC-Annexin V flow cytometry", "settings": "1 μM, 48 hours", "procedure": "(§1) FIGS. 3A-3D: FOXO1 Inhibitor Treatment led to Apoptosis. (FIGS. 3A-3C) LN229 and BT549 cells were treated with 1 μM AS1842856 and were stained with propidium iodide and FITC-Annexin V followed by flow cytometric analyses. […] (FIG. 3D) Western blot analyses were performed with BT549 and LN229 samples that were treated with AS1842856. Both cell lines had increased caspase 3 cleavage.\n(§2) FOXO1 inhibition led to apoptosis induction based on Caspase 3 cleavage and flow cytometric analyses. To clarify the impact of FOXO1 on BBC and GBM cell viability, BT549 and LN229 cells were treated with AS1842856 for 48 and 72 hours respectively."}, "LN229 cells": {"test_system": "LN229 cells", "assay": "Propidium iodide / FITC-Annexin V flow cytometry", "settings": "1 μM, 72 hours", "procedure": "as §1, §2"}, "[1]": {"test_system": "HCT116 colon cancer cells", "assay": "Gene expression by qRT-PCR (TUBB reference)", "settings": "48 hours"}, "U87MG CSCs": {"test_system": "U87MG CSCs", "assay": "Gene expression by qRT-PCR in cancer stem cells", "settings": "1 μM for 48 hours", "procedure": "(§3) Cell culture and drug treatments. Cell lines were obtained from ATCC (American Type Culture Collection, Manassas, VA) and grown under standard conditions (5% CO2, 10% FBS (fetal bovine serum), with 5% antifungal/antibacterial). Cell lines were tested for Mycoplasma using the MycoAlert Mycoplasma Detection Kit (Lonza, Basel Switzerland, cat: LT07-218); all experiments were done with mycoplasma negative cells. U87MG cells were propagated in MEM (Minimal Essential Medium). BT549 and DBTRG cells were propagated in RPMI (Roswell Park Memorial Institute 1640 Medium). LN18, U118MG, A172 and LN229 cells were propagated in DMEM (Dulbecco's Modified Eagle Medium). Neurosphere/cancer stem cell cultures for U87MG and BT549 cell lines were plated with 40,000 cells per mL in 3D Tumorsphere Medium XF (Sigma cat: C-28070, Burlington, MA). BT549 cancer stem cell cultures were supplemented with 1XB27 XenoFree CTS (Gibco/Thermo Fisher Waltham, MA, USA). AS1842856 was purchased from Calbiochem (Danvers, MA) and utilized at 200 nM, 500 nM and 1 μM final concentrations as indicated. […] Samples (cDNAs) were analyzed using (Power SYBR Green Master Mix, Applied Biosystems, Foster City, CA) and the ABI Step-One Real-time system (Carlsbad, CA). Expression levels were normalized to Beta-Tubulin, TUBB in gene expression experiments and calculated using 2-4ACT method (Livak et al., 2001). […]"}, "BT549 CSCs": {"test_system": "BT549 CSCs", "assay": "Gene expression by qRT-PCR in cancer stem cells", "settings": "1 μM for 48 hours", "procedure": "as §3"}, "A172": {"test_system": "A172", "assay": "Gene expression by qRT-PCR (TUBB reference)", "settings": "1 μM for 48 hours", "procedure": "(§4) Cell culture and drug treatments. Cell lines were obtained from ATCC (American Type Culture Collection, Manassas, VA) and grown under standard conditions (5% CO2, 10% FBS (fetal bovine serum), with 5% antifungal/antibacterial). Cell lines were tested for Mycoplasma using the MycoAlert Mycoplasma Detection Kit (Lonza, Basel Switzerland, cat: LT07-218); all experiments were done with mycoplasma negative cells. U87MG cells were propagated in MEM (Minimal Essential Medium). BT549 and DBTRG cells were propagated in RPMI (Roswell Park Memorial Institute 1640 Medium). LN18, U118MG, A172 and LN229 cells were propagated in DMEM (Dulbecco's Modified Eagle Medium). Neurosphere/cancer stem cell cultures for U87MG and BT549 cell lines were plated with 40,000 cells per mL in 3D Tumorsphere Medium XF (Sigma cat: C-28070, Burlington, MA). BT549 cancer stem cell cultures were supplemented with 1XB27 XenoFree CTS (Gibco/Thermo Fisher Waltham, MA, USA). AS1842856 was purchased from Calbiochem (Danvers, MA) and utilized at 200 nM, 500 nM and 1 μM final concentrations as indicated. AS1708727 was purchased from MedChem Express (Monmouth Junction, NJ) and was used at 0.5 μM, 1.0 µM and 2.0 μM concentrations. 5-aza-2′-deoxycytidine (5-AZA) was purchased from Millipore/Sigma (Burlington, MA) and utilized at a final concentration of 3 μM. Total RNA was prepared using the Qiagen RNeasy kit (Hilden, Germany), which was then used to generate cDNA using Superscript Reverse Transcriptase II (Invitrogen, Carlsbad, CA). Samples (cDNAs) were analyzed using (Power SYBR Green Master Mix, Applied Biosystems, Foster City, CA) and the ABI Step-One Real-time system (Carlsbad, CA). Expression levels were normalized to Beta-Tubulin, TUBB in gene expression experiments and calculated using 2-4ACT method (Livak et al., 2001). Primer sequences are detailed in Table 1."}, "U87MG cells": {"test_system": "U87MG cells", "assay": "Gene expression by qRT-PCR (TUBB reference)", "procedure": "as §4"}, "DBTRG [2]": {"test_system": "DBTRG", "assay": "Gene expression by qRT-PCR (TUBB reference)", "settings": "1 μM for 48 hours", "procedure": "as §4"}, "LN18": {"test_system": "LN18", "assay": "Gene expression by qRT-PCR (TUBB reference)", "settings": "1 μM for 48 hours", "procedure": "as §4"}, "LN229": {"test_system": "LN229", "assay": "Gene expression by qRT-PCR (TUBB reference)", "settings": "1 μM for 48 hours", "procedure": "as §4"}, "MDA-MB-468": {"test_system": "MDA-MB-468", "assay": "Colony formation assay (crystal violet)", "settings": "treated five days"}, "DBTRG [3]": {"test_system": "DBTRG", "assay": "Colony formation assay (crystal violet)", "settings": "treated five days", "procedure": "Cell culture and drug treatments. Cell lines were obtained from ATCC (American Type Culture Collection, Manassas, VA) and grown under standard conditions (5% CO2, 10% FBS (fetal bovine serum), with 5% antifungal/antibacterial). Cell lines were tested for Mycoplasma using the MycoAlert Mycoplasma Detection Kit (Lonza, Basel Switzerland, cat: LT07-218); all experiments were done with mycoplasma negative cells. U87MG cells were propagated in MEM (Minimal Essential Medium). BT549 and DBTRG cells were propagated in RPMI (Roswell Park Memorial Institute 1640 Medium). LN18, U118MG, A172 and LN229 cells were propagated in DMEM (Dulbecco's Modified Eagle Medium). Neurosphere/cancer stem cell cultures for U87MG and BT549 cell lines were plated with 40,000 cells per mL in 3D Tumorsphere Medium XF (Sigma cat: C-28070, Burlington, MA). BT549 cancer stem cell cultures were supplemented with 1XB27 XenoFree CTS (Gibco/Thermo Fisher Waltham, MA, USA). AS1842856 was purchased from Calbiochem (Danvers, MA) and utilized at 200 nM, 500 nM and 1 μM final concentrations as indicated. AS1708727 was purchased from MedChem Express (Monmouth Junction, NJ) and was used at 0.5 μM, 1.0 µM and 2.0 μM concentrations. 5-aza-2′-deoxycytidine (5-AZA) was purchased from Millipore/Sigma (Burlington, MA) and utilized at a final concentration of 3 μM. Cells were plated at a density of 2,700 cells per mL and were treated five days with indicated drug. Treatments were investigated in triplicate (in numerous independent experiments) and stained with crystal violet. Plates were aspirated of media then each well was washed with 1.0 mL of 1x phosphate buffered saline (PBS) once before being stained with 1.0 mL of crystal violet stain (0.5% crystal violet in buffered formalin) and incubated for 15 minutes. The stain was aspirated, and wells were washed 3 times with 0.5 mL of 1x PBS. After collections were completed, crystal violet-stained plates were solubilized using 0.5 mL on each well of 10% acetic acid and placed on shaker for 1 hour. Solubilized samples were transferred to 96 well plates and quantified on a spectrophotometer at 590 nm. Quantified plates were analyzed with a Tukey test. Error bars were added using the standard deviation. Cells were plated at 2,700 cells per mL and were treated five days with the indicated drug. Treatments were investigated in triplicate (in numerous independent experiments) and stained with crystal violet. Plates were aspirated of media, then each well was washed with 1.0 mL of 1× phosphate-buffered saline (PBS) once before being stained with 1.0 mL of crystal violet stain (0.5% crystal violet in buffered formalin) and incubated for 15 minutes. The stain was aspirated, and cells were washed three times with 0.5 mL of 1×PBS. After collections were completed, crystal violet-stained plates were solubilized using 0.5 mL on each well of 10% acetic acid and placed on a shaker for 1 hour. Solubilized samples were transferred to 96 well plates and quantified on a spectrophotometer at 590 nm using iMark Microplate Absorbance Reader (Bio-Rad, Hercules, CA). Quantified plates were analyzed with a Tukey Test. Error bars were added using the standard deviation."}}}
{"smiles": "CCn1cc(C(=O)O)c(=O)c2c(N)c(F)c(NC3CCCCC3)cc21", "note": "[AS1842856, 5-Amino-7-(cyclohexylamino)-1-ethyl-6-fluoro-4-oxo-1,4-dihydroquinoline-3-carboxylic acid]", "values": [{"measurement": "Annexin V-FITC and/or PI staining (indicators of apoptosis)", "setting": "BT549 cells", "result": "positive for Annexin V-FITC and/or PI"}, {"measurement": "Annexin V-FITC and/or PI staining (indicators of apoptosis)", "setting": "LN229 cells", "result": "positive for Annexin V-FITC and/or PI"}, {"measurement": "FAS gene expression", "setting": "[1]", "result": "induced the FAS gene"}, {"measurement": "FAS and BIM expression", "setting": "U87MG CSCs", "result": "FAS and BIM were induced"}, {"measurement": "FAS and BIM expression", "setting": "BT549 CSCs", "result": "FAS and BIM were induced"}, {"measurement": "apoptotic genes FAS and/or BIM expression", "setting": "A172", "result": "induced apoptotic genes FAS and/or BIM"}, {"measurement": "FAS expression", "setting": "U87MG cells", "result": "induced"}, {"measurement": "apoptotic genes FAS and/or BIM expression", "setting": "U87MG cells; 1 μM for 48 hours", "result": "induced apoptotic genes FAS and/or BIM"}, {"measurement": "apoptotic genes FAS and/or BIM expression", "setting": "DBTRG [2]", "result": "induced apoptotic genes FAS and/or BIM"}, {"measurement": "apoptotic genes FAS and/or BIM expression", "setting": "LN18", "result": "induced apoptotic genes FAS and/or BIM"}, {"measurement": "apoptotic genes FAS and/or BIM expression", "setting": "LN229", "result": "induced apoptotic genes FAS and/or BIM"}, {"measurement": "colony formation", "setting": "MDA-MB-468", "result": "fewer cells with 200 nM drug treatment with further reductions using 500 nM and 1 μM drug"}, {"measurement": "colony formation", "setting": "DBTRG [3]", "result": "fewer cells with 200 nM drug treatment with further reductions using 500 nM and 1 μM drug"}]}
